Columns and labels:
[1] = molecular target: Histamine H2 receptor (Homo sapiens, UniProt P25021); format: cell membranes, CHO-K1, Membrane; conditions: cho-k1
[2] = molecular target: T1, Angiotensin-converting enzyme (Oryctolagus cuniculus, UniProt P12822); assay: biochemical; format: tissue-based, Lung;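 note: enzymatic inhibition of angiotensin-converting enzyme measured with FAPGG as the substrate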
T1 sequence (P12822 whole entry): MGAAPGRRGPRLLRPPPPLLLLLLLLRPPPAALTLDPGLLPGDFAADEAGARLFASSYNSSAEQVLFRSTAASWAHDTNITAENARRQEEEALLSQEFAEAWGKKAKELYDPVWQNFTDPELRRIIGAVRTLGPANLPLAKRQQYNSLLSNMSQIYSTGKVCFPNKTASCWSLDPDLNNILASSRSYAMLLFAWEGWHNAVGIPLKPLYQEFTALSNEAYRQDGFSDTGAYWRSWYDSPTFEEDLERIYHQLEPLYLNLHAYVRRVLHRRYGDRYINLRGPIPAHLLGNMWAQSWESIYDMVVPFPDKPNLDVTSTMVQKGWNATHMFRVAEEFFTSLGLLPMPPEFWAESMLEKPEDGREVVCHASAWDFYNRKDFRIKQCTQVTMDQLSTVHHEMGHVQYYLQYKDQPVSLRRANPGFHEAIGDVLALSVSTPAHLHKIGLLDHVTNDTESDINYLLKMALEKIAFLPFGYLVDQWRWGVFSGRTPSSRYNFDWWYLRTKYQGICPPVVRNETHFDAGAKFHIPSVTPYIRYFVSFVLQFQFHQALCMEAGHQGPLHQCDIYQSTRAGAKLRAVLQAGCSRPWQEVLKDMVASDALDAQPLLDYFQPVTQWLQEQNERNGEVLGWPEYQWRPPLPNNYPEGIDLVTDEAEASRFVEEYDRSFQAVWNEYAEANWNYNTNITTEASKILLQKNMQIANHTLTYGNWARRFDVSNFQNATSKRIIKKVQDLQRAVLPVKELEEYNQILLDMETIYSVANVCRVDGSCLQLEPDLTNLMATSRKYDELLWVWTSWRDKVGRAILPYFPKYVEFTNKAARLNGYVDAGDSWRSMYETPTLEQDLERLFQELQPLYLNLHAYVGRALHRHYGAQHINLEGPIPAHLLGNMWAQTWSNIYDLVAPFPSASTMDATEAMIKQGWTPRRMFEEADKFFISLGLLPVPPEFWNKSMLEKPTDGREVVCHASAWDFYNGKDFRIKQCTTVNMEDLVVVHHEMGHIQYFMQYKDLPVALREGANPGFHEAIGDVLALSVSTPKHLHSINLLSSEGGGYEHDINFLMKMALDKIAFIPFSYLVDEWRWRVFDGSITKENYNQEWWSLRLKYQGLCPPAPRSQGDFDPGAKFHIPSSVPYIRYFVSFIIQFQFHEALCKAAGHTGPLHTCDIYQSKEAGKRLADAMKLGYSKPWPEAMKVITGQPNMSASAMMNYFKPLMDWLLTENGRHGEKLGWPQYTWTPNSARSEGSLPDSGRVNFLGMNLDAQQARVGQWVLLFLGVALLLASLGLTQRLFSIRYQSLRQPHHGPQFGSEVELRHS

[3] = molecular target: T2, Cathepsin G (Homo sapiens, UniProt P08311); format: tissue-based; conditions: neutrophil;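 note: inhibition of Cathepsin G enzyme activity, tested on an AMC-conjugated peptide substrate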
T2 sequence (P08311 whole entry): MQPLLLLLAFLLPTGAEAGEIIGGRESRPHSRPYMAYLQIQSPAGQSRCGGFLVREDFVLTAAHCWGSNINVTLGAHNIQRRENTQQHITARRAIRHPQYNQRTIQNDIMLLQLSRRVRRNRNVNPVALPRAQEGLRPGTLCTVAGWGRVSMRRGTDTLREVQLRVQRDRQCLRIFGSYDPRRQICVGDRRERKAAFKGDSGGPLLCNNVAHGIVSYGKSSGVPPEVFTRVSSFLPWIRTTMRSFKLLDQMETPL

[4] = molecular target: Receptor tyrosine-protein kinase erbB-2 (Homo sapiens, UniProt P04626); assay: biochemical; format: cell-based, Insect cells;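 note: inhibition of HER2 kinase enzyme activity, measured with Poly(Glu:Tyr) as the phosphorylation substrate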
[5] = molecular target: T3, Receptor-type tyrosine-protein phosphatase C (Homo sapiens, UniProt P08575); design: species or system Escherichia coli;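 note: inhibition of CD45 enzyme activity measured using DiFMUP as substrate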
T3 sequence (P08575 whole entry): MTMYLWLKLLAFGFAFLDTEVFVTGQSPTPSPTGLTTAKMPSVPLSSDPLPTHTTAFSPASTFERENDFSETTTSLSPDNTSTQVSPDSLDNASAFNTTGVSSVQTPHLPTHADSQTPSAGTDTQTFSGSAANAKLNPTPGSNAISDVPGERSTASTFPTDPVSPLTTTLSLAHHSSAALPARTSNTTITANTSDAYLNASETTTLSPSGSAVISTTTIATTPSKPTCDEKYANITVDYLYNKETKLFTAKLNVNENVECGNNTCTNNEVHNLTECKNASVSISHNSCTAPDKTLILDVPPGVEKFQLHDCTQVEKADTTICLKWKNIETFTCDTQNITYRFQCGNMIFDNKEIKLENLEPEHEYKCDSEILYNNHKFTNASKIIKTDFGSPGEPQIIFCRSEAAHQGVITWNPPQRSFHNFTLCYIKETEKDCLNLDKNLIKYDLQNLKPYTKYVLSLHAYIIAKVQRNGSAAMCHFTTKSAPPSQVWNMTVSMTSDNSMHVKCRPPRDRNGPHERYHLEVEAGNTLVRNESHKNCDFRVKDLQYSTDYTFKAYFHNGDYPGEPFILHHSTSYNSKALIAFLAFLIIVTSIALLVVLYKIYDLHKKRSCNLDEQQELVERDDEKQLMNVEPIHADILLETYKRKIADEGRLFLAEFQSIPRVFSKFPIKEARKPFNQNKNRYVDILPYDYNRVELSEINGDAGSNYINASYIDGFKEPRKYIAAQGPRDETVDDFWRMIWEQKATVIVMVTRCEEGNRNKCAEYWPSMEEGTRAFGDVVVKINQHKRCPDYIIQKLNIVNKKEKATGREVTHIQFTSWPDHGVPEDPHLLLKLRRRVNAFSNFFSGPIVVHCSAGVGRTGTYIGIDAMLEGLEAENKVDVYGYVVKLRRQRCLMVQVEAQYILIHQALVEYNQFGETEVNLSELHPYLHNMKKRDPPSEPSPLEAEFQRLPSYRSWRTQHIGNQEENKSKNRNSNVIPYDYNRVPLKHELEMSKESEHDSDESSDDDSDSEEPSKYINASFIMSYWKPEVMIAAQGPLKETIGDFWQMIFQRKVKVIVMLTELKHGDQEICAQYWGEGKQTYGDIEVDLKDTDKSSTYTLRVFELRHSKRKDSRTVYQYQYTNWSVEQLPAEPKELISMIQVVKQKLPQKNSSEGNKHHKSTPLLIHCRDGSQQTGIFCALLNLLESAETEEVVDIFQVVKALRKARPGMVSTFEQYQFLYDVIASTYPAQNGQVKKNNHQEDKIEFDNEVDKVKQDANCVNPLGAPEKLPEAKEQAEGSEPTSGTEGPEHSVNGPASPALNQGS

[6] = molecular target: Voltage-gated inwardly rectifying potassium channel KCNH2 (Homo sapiens, UniProt Q12809); conditions: hek293
Note: in other assays of this panel Not Active means under 50% inhibition at 10 µM.

Sequence of Voltage-gated inwardly rectifying potassium channel KCNH2 (Q12809 whole entry): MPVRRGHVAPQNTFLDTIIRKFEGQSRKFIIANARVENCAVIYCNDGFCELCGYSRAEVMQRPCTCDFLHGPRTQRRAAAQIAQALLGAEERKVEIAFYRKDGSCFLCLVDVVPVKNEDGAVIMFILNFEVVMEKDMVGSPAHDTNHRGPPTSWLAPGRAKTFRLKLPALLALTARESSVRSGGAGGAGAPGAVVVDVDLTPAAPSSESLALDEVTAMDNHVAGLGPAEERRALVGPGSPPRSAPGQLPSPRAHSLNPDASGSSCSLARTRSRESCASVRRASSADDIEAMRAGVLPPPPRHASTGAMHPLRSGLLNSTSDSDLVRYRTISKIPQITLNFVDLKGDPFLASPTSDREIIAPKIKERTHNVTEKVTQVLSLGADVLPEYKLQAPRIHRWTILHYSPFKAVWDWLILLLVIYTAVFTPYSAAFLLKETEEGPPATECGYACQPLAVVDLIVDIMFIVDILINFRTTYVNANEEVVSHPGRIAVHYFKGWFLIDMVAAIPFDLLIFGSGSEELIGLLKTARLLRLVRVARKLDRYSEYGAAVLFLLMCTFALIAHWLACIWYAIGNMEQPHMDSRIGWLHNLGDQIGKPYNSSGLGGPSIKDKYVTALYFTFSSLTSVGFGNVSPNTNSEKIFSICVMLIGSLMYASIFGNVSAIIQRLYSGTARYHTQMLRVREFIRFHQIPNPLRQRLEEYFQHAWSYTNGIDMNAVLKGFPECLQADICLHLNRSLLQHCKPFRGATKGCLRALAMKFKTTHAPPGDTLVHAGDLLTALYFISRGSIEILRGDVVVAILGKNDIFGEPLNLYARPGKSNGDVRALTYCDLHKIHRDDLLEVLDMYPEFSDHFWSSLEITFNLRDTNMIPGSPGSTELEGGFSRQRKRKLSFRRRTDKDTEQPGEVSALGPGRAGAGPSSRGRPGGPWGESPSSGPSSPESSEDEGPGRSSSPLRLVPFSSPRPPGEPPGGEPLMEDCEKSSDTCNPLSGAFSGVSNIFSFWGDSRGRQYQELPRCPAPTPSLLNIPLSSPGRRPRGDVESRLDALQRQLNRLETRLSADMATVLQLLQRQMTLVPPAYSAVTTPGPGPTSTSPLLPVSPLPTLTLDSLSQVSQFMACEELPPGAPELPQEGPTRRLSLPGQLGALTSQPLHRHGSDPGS
Sequence of Receptor tyrosine-protein kinase erbB-2 (P04626 whole entry): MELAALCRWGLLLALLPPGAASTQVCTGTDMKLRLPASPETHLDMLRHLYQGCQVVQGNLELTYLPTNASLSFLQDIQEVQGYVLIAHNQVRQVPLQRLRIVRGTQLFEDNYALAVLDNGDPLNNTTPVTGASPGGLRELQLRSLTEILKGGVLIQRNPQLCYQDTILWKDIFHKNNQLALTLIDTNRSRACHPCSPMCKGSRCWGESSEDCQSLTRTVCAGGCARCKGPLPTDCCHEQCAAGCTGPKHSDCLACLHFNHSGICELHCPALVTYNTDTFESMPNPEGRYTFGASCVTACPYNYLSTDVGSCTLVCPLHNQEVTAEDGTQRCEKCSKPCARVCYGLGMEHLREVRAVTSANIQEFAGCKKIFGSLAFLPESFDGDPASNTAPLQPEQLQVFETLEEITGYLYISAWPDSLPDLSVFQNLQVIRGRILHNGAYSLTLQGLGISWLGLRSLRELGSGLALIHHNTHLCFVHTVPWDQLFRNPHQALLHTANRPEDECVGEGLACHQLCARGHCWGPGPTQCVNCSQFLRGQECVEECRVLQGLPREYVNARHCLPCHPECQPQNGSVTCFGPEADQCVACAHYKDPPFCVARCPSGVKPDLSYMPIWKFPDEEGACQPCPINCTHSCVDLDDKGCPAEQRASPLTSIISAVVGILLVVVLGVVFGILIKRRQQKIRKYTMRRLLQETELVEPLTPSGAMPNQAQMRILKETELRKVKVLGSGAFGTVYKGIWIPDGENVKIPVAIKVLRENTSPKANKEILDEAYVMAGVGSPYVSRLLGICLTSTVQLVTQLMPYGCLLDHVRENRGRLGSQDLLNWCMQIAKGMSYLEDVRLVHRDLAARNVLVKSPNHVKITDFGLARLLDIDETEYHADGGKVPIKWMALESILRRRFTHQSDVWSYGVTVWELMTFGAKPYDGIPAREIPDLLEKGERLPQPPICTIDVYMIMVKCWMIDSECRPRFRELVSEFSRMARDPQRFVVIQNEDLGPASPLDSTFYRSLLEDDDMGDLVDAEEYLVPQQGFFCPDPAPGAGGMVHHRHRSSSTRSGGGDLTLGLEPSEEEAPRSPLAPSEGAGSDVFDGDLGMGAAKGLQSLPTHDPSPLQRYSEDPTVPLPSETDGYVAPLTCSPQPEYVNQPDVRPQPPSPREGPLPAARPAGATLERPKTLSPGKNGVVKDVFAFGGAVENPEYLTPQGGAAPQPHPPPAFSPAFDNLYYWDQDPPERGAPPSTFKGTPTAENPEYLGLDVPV
Sequence of Histamine H2 receptor (P25021 whole entry): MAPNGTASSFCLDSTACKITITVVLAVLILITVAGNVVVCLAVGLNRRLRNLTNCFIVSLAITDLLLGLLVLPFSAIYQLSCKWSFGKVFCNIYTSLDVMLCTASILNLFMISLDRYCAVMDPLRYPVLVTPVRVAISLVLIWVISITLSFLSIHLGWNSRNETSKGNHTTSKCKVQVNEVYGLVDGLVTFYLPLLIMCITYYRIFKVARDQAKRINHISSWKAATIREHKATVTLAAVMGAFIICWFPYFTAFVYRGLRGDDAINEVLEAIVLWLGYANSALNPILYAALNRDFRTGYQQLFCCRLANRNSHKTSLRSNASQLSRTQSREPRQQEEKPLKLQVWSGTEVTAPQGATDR

COc1ccc2cc(CC(=O)O)ccc2c1
Not Active: IC50 [1] | IC50 [2] | IC50 [3] | IC50 ([4]; insect cells) | IC50 [5] | IC50 [6] | Ki [6]

CC(C)NC[C@H](O)COc1cccc2[nH]ccc12
Not Active: IC50 [1] | IC50 [2] | IC50 [3] | IC50 ([4]; insect cells) | IC50 [5] | IC50 [6] | Ki [6]

c1ccc2c(c1)cc1ccc3cccc4ccc2c1c34
41.5 µM: IC50 ([4]; read-out: IC50)
Not Active: IC50 [1] | IC50 [2] | IC50 [3] | IC50 [5] | IC50 [6] | Ki [6]

CC=CC(=O)N(CC)c1ccccc1C
Not Active: IC50 [1] | IC50 [2] | IC50 [3] | IC50 ([4]; insect cells) | IC50 [5] | IC50 [6] | Ki [6]

C=C1C(=O)O[C@@H]2C3O[C@]3(C)CC/C=C(\C)CC[C@@H]12 (some centres not stated)
Not Active: IC50 [1] | IC50 [2] | IC50 [3] | IC50 ([4]; insect cells) | IC50 [5] | IC50 [6] | Ki [6]

CC(/C=C1\SC(=S)N(CC(=O)O)C1=O)=C\c1ccccc1
Not Active: IC50 [1] | IC50 [2] | IC50 [3] | IC50 ([4]; insect cells) | IC50 [5] | IC50 [6] | Ki [6]

CCCCCCCCCc1ccc(O)cc1 [4-NONYLPHENOL]
Not Active: IC50 [1] | IC50 [2] | IC50 [3] | IC50 ([4]; insect cells) | IC50 [5] | IC50 [6] | Ki [6]

COc1ccc2c(c1)c(CC(=O)OCC(=O)O)c(C)n2C(=O)c1ccc(Cl)cc1 [ACEMETACIN]
Not Active: IC50 [1] | IC50 [2] | IC50 [3] | IC50 ([4]; insect cells) | IC50 [5] | IC50 [6] | Ki [6]

CCCSc1ccc2nc(NC(=O)OC)[nH]c2c1 [ALBENDAZOLE]
Not Active: IC50 [1] | IC50 [2] | IC50 [3] | IC50 ([4]; insect cells) | IC50 [5] | IC50 [6] | Ki [6]

Cc1[nH]cnc1CN1CCc2c(c3ccccc3n2C)C1=O [ALOSETRON]
Not Active: IC50 [1] | IC50 [2] | IC50 [3] | IC50 ([4]; insect cells) | IC50 [5] | IC50 [6] | Ki [6]

O=c1cc(-c2ccccc2)oc2c1ccc1ccccc12 [ALPHA-NAPHTHOFLAVONE]
Not Active: IC50 [1] | IC50 [2] | IC50 [3] | IC50 ([4]; insect cells) | IC50 [5] | IC50 [6] | Ki [6]

CC1(C)S[C@@H]2[C@H](NC(=O)[C@H](N)c3ccc(O)cc3)C(=O)N2[C@H]1C(=O)O [AMOXICILLIN]
Not Active: IC50 [1] | IC50 [2] | IC50 [3] | IC50 ([4]; insect cells) | IC50 [5]

O=C(O)c1cn(C2CC2)c2cc(N3CCNCC3)c(F)cc2c1=O [CIPROFLOXACIN]
Not Active: IC50 [1] | IC50 [2] | IC50 [3] | IC50 ([4]; insect cells) | IC50 [5]

CN(C)CCCC1(c2ccc(F)cc2)OCc2cc(C#N)ccc21 (configuration not stated) [CITALOPRAM]
Not Active: IC50 [1] | IC50 [2] | IC50 [3] | IC50 ([4]; insect cells) | IC50 [5]

COc1ccc([C@@H]2Sc3ccccc3N(CCN(C)C)C(=O)[C@@H]2OC(C)=O)cc1 [DILTIAZEM]
Not Active: IC50 [1] | IC50 [2] | IC50 [3] | IC50 ([4]; insect cells) | IC50 [5]

Cc1c(-c2ccccc2)oc2c(C(=O)OCCN3CCCCC3)cccc2c1=O [FLAVOXATE]
Not Active: IC50 [1] | IC50 [2] | IC50 [3] | IC50 ([4]; insect cells) | IC50 [5]

O=C1OCCN1/N=C/c1ccc([N+](=O)[O-])o1 [FURAZOLIDONE]
Not Active: IC50 [1] | IC50 [2] | IC50 [3] | IC50 ([4]; insect cells) | IC50 [5]

Fc1ccc([C@@H]2CCNC[C@H]2COc2ccc3c(c2)OCO3)cc1 [PAROXETINE]
Not Active: IC50 [1] | IC50 [2] | IC50 [3] | IC50 ([4]; insect cells) | IC50 [5]

COc1ccc(CN(CCN(C)C)c2ccccn2)cc1 [PYRILAMINE]
Not Active: IC50 [1] | IC50 [2] | IC50 [3] | IC50 ([4]; insect cells) | IC50 [5]

— ChEMBL document CHEMBL1909046, “DrugMatrix in vitro pharmacology data”
